Measured values taken from patent US6331520A, “Pharmaceutical compositions of peptides having low solubility in physiological medium” (Applied Research Systems ARS Holding NV, priority 1997, dated 2001).
≈ marks a conversion by molar mass, not a printed value. Non-standard residues stand in square brackets, D forms with d. Residues, ends and D or L forms follow the SMILES beside them. *: point of attachment. dPhe(4-Cl) = N[C@H](Cc1ccc(Cl)cc1)C(=O)O; d2Nal = N[C@H](Cc1ccc2ccccc2c1)C(=O)O; Lys(iPr) = CC(C)NCCCC[C@H](N)C(=O)O; d3Pal = N[C@H](Cc1cccnc1)C(=O)O; Nicotinoyl = O=C(c1cccnc1)*

Legend:
Format in all cases: physicochemical
[1] = Solubilisation studies for antide: effect of pH (WFI, saline, acids)
Procedure: Solubilisation studies were carried out to study the effect of:
pH (solutions were acidified with either acetic acid or hydrochloric acid)
(§1) Saline used in these studies corresponds to 0.9% sodium chloride solution.
(§2) Following the visual analysis, a number of solutions were selected for further quantitative determination of the solubility by filtration (0.45 μm filters) and appropriate dilution using the RP-HPLC method described above.
Tables 3 to 7 summarise the observations collected in order to obtain information on the solubility behaviour of antide in water for injectables (WFI), WFI acidified by HCl or acetic acid, saline and saline acidified by acetic acid. In agreement with previous studies, the solubility of antide increased as the pH decreased.

[2] = Solubilisation studies for antide: effect of hydrotropic agents in saline; conditions: for Solubility: antide 5 mg/ml added
From the text: hydrotropic agents (nicotinamide, sodium saccharin, sodium salicylate, sodium benzoate, histidine hydrochloride, thiamine hydrochloride, phenylalanine).
as §1, §2
The effect of different hydrotropic agents (1.5% & 15% w/w) in saline solutions was also evaluated and is described in Tables 8 and 9.

[3] = Stability of nicotinamide/antide formulations; design: Stability (antide found): unit not given here
Procedure: RP-HPLC gradient elution, C-18 (e.g. Vydac 218 TP54, 250×4.6 mm) column. UV detection at 215 nm, injection volume 15 μl, mobile phase A: pH 4.5 phosphate buffer (0.1 M), mobile phase B: acetonitrile, flow rate=1.0 ml/min, runtime=23 min. External standard solution concentrations of 100 μg/ml were injected during analysis. The gradient was: 77% A, 23% B to 52% A, 48% B […].
Four formulations of antide and nicotinamide at different concentration ratios and adjusted to pH 5 were prepared and tested over 3 months at +40° C., +25° C. and +4° C.

[4] = Solubilisation studies for hGRF; conditions: for solubility thermodynamic at 1 week: 0.9% NaCl
Procedure: Solubilisation studies were carried out to study the effect of saline and pH 7 phosphate buffer on the solubility of hGRF.
Qunatitation of the amount of hGRF dissolved was performed by filtration of the equilibrated solution through a 0.45 μm filter prior to dilution and analysis by HPLC.

CC(=O)N[C@H](Cc1ccc2ccccc2c1)C(=O)N[C@H](Cc1ccc(Cl)cc1)C(=O)N[C@H](Cc1cccnc1)C(=O)N[C@@H](CO)C(=O)N[C@@H](CCCCNC(=O)c1cccnc1)C(=O)N[C@H](CCCCNC(=O)c1cccnc1)C(=O)N[C@@H](CC(C)C)C(=O)N[C@@H](CCCCNC(C)C)C(=O)N1CCC[C@H]1C(=O)N[C@H](C)C(N)=O [antide] (Ac-[d2Nal][dPhe(4-Cl)][d3Pal]SK(Nicotinoyl)[dK](Nicotinoyl)L[Lys(iPr)]P[dA]-NH2)
Solubility ([1]; 10 mg/ml in saline, pH 3.0 or 4.6, 4% acetic acid): not soluble | Solubility ([1]; WFI, 10 mg/ml nominal amount added, pH 4.40): 8130 µg/mL (≈ 5110 µM) | Solubility ([1]; phosphate buffered saline, aqueous buffer, read-out: solubility): 16 µg/mL (≈ 10.1 µM) | Solubility ([1]; saline solution, natural pH 5.04): 25 µg/mL (≈ 15.7 µM) | solubility thermodynamic ([1]; water, without further acidification, read-out: solubility limit): 8100 µg/mL (≈ 5090 µM) | solubilisation ([2]; 1.5% w/w hydrotropic agents in saline, antide 10 mg/ml): not effective | antide solubilised ([2]; 5% nicotinamide in saline): about 0.5 mg/ml | antide solubilised ([2]; 20% nicotinamide in saline): 8.5 mg/mL | Solubility ([2]; saline + 15% nicotinamide, pH 5.79): 3320 µg/mL | Solubility ([2]; saline + 15% sodium benzoate, pH 6.69): 72 µg/mL | Solubility ([2]; saline + 15% sodium salicylate, pH 5.81): 210 µg/mL | Solubility ([2]; saline + 15% thiamine hydrochloride, pH 3.30): 3010 µg/mL | Solubility ([2]; saline + histidine hydrochloride (5%), pH 4.17): 76 µg/mL | Solubility ([2]; saline + phenylalanine (1.7%), pH 4.59): 66 µg/mL | Stability (antide found) ([3]; antide 1 mg/ml, nicotinamide 5%, +4° C., 4W): 0.9 | Stability (antide found) ([3]; antide 1 mg/ml, nicotinamide 5%, +4° C., 12W): 1.0 | Stability (antide found) ([3]; antide 1 mg/ml, nicotinamide 5%, +25° C., 1W): 0.9 | Stability (antide found) ([3]; antide 1 mg/ml, nicotinamide 5%, +25° C., 4W): 0.9 | Stability (antide found) ([3]; antide 1 mg/ml, nicotinamide 5%, +25° C., 12W): 1.0 | Stability (antide found) ([3]; antide 1 mg/ml, nicotinamide 5%, +40° C., 1W): 1.0 | Stability (antide found) ([3]; antide 1 mg/ml, nicotinamide 5%, +40° C., 4W): 0.9 | Stability (antide found) ([3]; antide 1 mg/ml, nicotinamide 5%, +40° C., 12W): 1.0 | Stability (antide found) ([3]; antide 1 mg/ml, nicotinamide 5%, T = 0): 1.0 | Stability (antide found) ([3]; antide 1 mg/ml, nicotinamide 25%, +4° C., 4W): 1.0 | Stability (antide found) ([3]; antide 1 mg/ml, nicotinamide 25%, +4° C., 12W): 1.1 | Stability (antide found) ([3]; antide 1 mg/ml, nicotinamide 25%, +25° C., 1W): 1.0 | Stability (antide found) ([3]; antide 1 mg/ml, nicotinamide 25%, +25° C., 4W): 1.0 | Stability (antide found) ([3]; antide 1 mg/ml, nicotinamide 25%, +25° C., 12W): 1.1 | Stability (antide found) ([3]; antide 1 mg/ml, nicotinamide 25%, +40° C., 1W): 1.0 | Stability (antide found) ([3]; antide 1 mg/ml, nicotinamide 25%, +40° C., 4W): 1.0 | Stability (antide found) ([3]; antide 1 mg/ml, nicotinamide 25%, +40° C., 12W): 1.1 | Stability (antide found) ([3]; antide 1 mg/ml, nicotinamide 25%, T = 0): 1.0 | Stability (antide found) ([3]; antide 10 mg/ml, nicotinamide 5%, +4° C., 1W): 10.3 | Stability (antide found) ([3]; antide 10 mg/ml, nicotinamide 5%, +4° C., 4W): 10.0 | Stability (antide found) ([3]; antide 10 mg/ml, nicotinamide 5%, +4° C., 12W): 10.5 | Stability (antide found) ([3]; antide 10 mg/ml, nicotinamide 5%, +25° C., 1W): gel | Stability (antide found) ([3]; antide 10 mg/ml, nicotinamide 5%, +25° C., 4W): gel | Stability (antide found) ([3]; antide 10 mg/ml, nicotinamide 5%, +25° C., 12W): gel | Stability (antide found) ([3]; antide 10 mg/ml, nicotinamide 5%, +40° C., 1W): gel | Stability (antide found) ([3]; antide 10 mg/ml, nicotinamide 5%, +40° C., 4W): gel | Stability (antide found) ([3]; antide 10 mg/ml, nicotinamide 5%, +40° C., 12W): gel | Stability (antide found) ([3]; antide 10 mg/ml, nicotinamide 5%, T = 0): 9.7 | Stability (antide found) ([3]; antide 10 mg/ml, nicotinamide 25%, +4° C., 4W): 10.1 | Stability (antide found) ([3]; antide 10 mg/ml, nicotinamide 25%, +25° C., 1W): 9.8 | Stability (antide found) ([3]; antide 10 mg/ml, nicotinamide 25%, +25° C., 4W): 9.5 | Stability (antide found) ([3]; antide 10 mg/ml, nicotinamide 25%, +25° C., 12W): 11.1 | Stability (antide found) ([3]; antide 10 mg/ml, nicotinamide 25%, +40° C., 1W): 10.7 | Stability (antide found) ([3]; antide 10 mg/ml, nicotinamide 25%, +40° C., 4W): 9.4 | Stability (antide found) ([3]; antide 10 mg/ml, nicotinamide 25%, +40° C., 12W): 10.2 | Stability (antide found) ([3]; antide 10 mg/ml, nicotinamide 25%, T = 0): 9.8 | chemical degradation ([3]; antide/nicotinamide formulations, after 3 months): No chemical degradation

CC[C@H](C)[C@H](NC(=O)[C@H](C)NC(=O)[C@H](CC(=O)O)NC(=O)[C@H](C)NC(=O)[C@@H](N)Cc1ccc(O)cc1)C(=O)N[C@@H](Cc1ccccc1)C(=O)N[C@H](C(=O)N[C@@H](CC(N)=O)C(=O)N[C@@H](CO)C(=O)N[C@@H](Cc1ccc(O)cc1)C(=O)N[C@@H](CCCNC(=N)N)C(=O)N[C@@H](CCCCN)C(=O)N[C@H](C(=O)N[C@@H](CC(C)C)C(=O)NCC(=O)N[C@@H](CCC(N)=O)C(=O)N[C@@H](CC(C)C)C(=O)N[C@@H](CO)C(=O)N[C@@H](C)C(=O)N[C@@H](CCCNC(=N)N)C(=O)N[C@@H](CCCCN)C(=O)N[C@@H](CC(C)C)C(=O)N[C@@H](CC(C)C)C(=O)N[C@@H](CCC(N)=O)C(=O)N[C@@H](CC(=O)O)C(=O)N[C@H](C(=O)N[C@@H](CCSC)C(=O)N[C@@H](CO)C(=O)N[C@@H](CCCNC(=N)N)C(N)=O)[C@@H](C)CC)C(C)C)[C@@H](C)O [hGRF, hGRF(1-29)-NH2]
solubility thermodynamic at 1 week ([4]; 25° C., one week): 42 µg/mL (≈ 12.5 µM) | solubility thermodynamic at 1 week ([4]; 40° C. for one week): 97 µg/mL (≈ 28.9 µM) | solubility at 1 week ([4]; 25° C., WFI, one week): > 1000 µg/mL | Solubility ([4]; 40° C. for one week, 0.9% NaCl + 5% nicotinamide): 875 µg/mL | solubility thermodynamic at 5 days ([4]; PBS, pH 7, aqueous buffer, 25° C., 5 days): 32 µg/mL (≈ 9.53 µM)
